“And” between values parts separate entries of the source, which are not always exact repeats. Identical values can stand only once. “Also recorded” adds a separate entry of the source.
Experiments:
UchL3 = UchL3 (Homo sapiens, UniProt P15374); assay: DUB/cathepsin selectivity biochemical assay
USP34 CORE = molecular target: T1, USP34 CORE (Homo sapiens, UniProt Q70CQ2); assay: DUB/cathepsin selectivity biochemical assay
T1 construct: USP34 CORE

MINDY2 = MINDY2 (Homo sapiens, UniProt Q8NBR6); assay: DUB/cathepsin selectivity biochemical assay
VCPIP FL = molecular target: T2, VCPIP FL (Homo sapiens, UniProt Q96JH7); assay: DUB/cathepsin selectivity biochemical assay
T2 construct: VCPIP FL

USP19 = USP19 (Homo sapiens, UniProt O94966); assay: DUB/cathepsin selectivity biochemical assay
Sequence of USP19 (O94966 whole entry, species assumed): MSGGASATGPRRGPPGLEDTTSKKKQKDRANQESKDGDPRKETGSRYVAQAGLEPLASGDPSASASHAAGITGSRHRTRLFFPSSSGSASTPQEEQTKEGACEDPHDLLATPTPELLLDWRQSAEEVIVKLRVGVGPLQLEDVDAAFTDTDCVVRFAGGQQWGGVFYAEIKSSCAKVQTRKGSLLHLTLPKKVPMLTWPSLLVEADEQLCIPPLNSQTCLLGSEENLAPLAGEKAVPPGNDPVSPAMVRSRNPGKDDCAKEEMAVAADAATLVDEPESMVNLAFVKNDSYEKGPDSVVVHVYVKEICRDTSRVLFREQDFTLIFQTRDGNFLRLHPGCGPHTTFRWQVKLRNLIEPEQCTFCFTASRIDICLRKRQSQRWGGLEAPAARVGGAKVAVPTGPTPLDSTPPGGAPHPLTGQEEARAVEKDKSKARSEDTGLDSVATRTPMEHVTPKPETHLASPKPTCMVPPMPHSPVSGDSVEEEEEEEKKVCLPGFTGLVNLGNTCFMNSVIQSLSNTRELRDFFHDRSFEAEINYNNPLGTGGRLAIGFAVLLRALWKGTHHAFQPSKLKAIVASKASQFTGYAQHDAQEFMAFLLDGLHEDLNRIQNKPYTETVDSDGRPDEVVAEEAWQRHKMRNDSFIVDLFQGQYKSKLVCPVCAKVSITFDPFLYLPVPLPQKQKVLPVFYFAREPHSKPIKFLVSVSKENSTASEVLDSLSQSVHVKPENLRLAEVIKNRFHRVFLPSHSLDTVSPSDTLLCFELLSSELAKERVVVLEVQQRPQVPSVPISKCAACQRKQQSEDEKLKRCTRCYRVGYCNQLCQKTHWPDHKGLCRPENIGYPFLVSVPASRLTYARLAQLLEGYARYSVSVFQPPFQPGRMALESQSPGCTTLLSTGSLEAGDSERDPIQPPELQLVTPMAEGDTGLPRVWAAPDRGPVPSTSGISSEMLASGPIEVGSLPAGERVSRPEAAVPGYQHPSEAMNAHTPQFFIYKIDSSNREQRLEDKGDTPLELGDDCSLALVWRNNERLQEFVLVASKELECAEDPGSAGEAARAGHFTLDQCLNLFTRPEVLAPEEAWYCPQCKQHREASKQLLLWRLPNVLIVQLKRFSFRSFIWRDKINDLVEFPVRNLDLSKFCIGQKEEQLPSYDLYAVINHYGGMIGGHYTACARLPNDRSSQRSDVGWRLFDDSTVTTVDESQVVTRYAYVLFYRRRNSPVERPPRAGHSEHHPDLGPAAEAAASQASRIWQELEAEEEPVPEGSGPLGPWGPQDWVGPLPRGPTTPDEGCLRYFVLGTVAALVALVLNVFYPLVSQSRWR

OTUB2 = OTUB2 (Homo sapiens, UniProt Q96DC9); assay: DUB/cathepsin selectivity biochemical assay
Sequence of OTUB2 (Q96DC9 whole entry, species assumed): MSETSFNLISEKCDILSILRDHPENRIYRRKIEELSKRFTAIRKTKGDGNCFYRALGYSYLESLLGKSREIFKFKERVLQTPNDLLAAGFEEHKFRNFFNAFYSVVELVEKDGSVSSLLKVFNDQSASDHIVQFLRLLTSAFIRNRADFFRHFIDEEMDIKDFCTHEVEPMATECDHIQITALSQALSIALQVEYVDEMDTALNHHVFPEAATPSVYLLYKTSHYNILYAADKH

USP36 CD = molecular target: T3, USP36 CD (Homo sapiens, UniProt Q9P275); assay: DUB/cathepsin selectivity biochemical assay
T3 construct: USP36 CD

USP28 = USP28 (Homo sapiens, UniProt Q96RU2); assay: DUB/cathepsin selectivity biochemical assay
Sequence of USP28 (Q96RU2 whole entry, species assumed): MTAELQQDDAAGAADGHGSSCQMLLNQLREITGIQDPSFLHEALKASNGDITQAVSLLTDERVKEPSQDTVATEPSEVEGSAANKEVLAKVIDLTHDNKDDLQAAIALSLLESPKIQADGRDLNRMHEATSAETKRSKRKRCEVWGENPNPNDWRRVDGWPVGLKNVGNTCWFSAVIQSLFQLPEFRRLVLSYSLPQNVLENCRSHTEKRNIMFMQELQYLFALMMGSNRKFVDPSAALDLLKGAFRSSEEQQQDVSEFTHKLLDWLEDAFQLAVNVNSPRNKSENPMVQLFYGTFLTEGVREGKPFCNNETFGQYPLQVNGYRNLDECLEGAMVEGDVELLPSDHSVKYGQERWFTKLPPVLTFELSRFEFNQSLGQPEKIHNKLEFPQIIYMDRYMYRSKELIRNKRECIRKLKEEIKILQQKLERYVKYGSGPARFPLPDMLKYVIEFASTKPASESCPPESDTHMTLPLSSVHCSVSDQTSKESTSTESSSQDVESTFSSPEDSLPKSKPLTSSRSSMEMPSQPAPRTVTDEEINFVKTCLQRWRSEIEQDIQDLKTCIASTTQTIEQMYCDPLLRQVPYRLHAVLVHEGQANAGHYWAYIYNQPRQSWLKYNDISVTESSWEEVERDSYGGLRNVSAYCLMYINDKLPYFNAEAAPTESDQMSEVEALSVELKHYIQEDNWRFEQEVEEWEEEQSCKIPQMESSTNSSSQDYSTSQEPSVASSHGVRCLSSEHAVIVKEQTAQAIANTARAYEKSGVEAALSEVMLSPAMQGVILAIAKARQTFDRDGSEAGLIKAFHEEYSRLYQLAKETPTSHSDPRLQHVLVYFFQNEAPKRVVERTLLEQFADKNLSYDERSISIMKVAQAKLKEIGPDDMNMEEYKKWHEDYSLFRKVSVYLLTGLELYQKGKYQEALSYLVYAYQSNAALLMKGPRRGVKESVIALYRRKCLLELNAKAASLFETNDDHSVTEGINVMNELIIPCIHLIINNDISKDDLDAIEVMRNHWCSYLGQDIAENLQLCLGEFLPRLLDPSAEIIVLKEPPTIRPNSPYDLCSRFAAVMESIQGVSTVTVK

SH-SY5Y mito-QC cells = assay: Mitophagy (mito-QC) live imaging in SH-SY5Y cells; type: cell-based, human
Procedure: SH-SY5Y cells stably expressing mCherry-GFP-Fis1101-152 reporter (SH-SY5Y mito-QC) kindly provided by Dr I Ganley (MRC PPU, Dundee) were cultured in DMEM/F12 media supplemented with 1% L-glutamine, 1% penicillin/streptomycin, 1% non-essential amino acids, 10% fetal bovine serum at 37 °C and 5% CO2.
For inhibitor studies, live imaging was applied to mitophagy puncta analysis in SH-SY5Y mito-QC cells. SH-SY5Y mito-QC cells were plated overnight at 7000 cells/well into black walled PhenoPlate 96-well microplates in DMEM/F-12 (phenol red free) supplemented as above. SH-SY5Y mito-QC cells were incubated with NucBlue™ live stain for 20 mins then washed. […] Cells were live imaged using the Operetta CLS Type HH1600 (optical mode set to confocal, 40x water objective) at timepoints 0 h, 4 h, 20 h, 24 h, 48 h and 72 h. Images were acquired using the following channel settings: mCherry; excitation 530/60 nm, emission 570/650 nm, GFP; excitation 460/90 nm, emission 500/650 nm, Hoechst; excitation 355/85 nm, emission 430/500 nm. For all conditions tested, quantification of mitophagy was performed from three independent experiments (with three technical replicates capturing 11 fields of views, 6 z-stacks).
Image Quantification: For analysis of mitophagy, images were processed with the Harmony analysis software using the “SH-SY5Y-mito-QC_analysis 2” sequence. For mitolysosome identification the following analysis steps were performed: (1) Identification of the cell nuclei using Hoechst staining, (2) Identification of the cell cytoplasm using a deep phase contrast (DPC) image, (3) Identification of the mitochondrial network, using the Ser-Bright function on the mCherry channel within the cytoplasm, (4) Mitochondrial network partitioning using the FindSpots function, (5) Identification of mitophagic puncta with the partitioned mitochondrial network, using an mCherry:GFP ratio threshold of mean >+3 standard deviations from the 24 h DMSO only treated cells.

[1] = tested on: TOM20-ubiquitylation in alpha-synuclein A53T mutated iPSC-derived dopaminergic neurons; assay: TOM20-ubiquitylation in A53T iPSC-derived dopaminergic neurons; type: cell-based, human; conditions: no exogenous stimuli
From the text: Donor-derived DopaNeuron lines were generated from source material provided by the Parkinson’s Progression Markers Initiative (PPMI) through The Michael J. Fox Foundation. Human iPS cells-derived DopaNeurons were purchased from Fujifilm/Cellular Dynamics. Apparently healthy normal (AHN) (catalog # R1088) or alpha-synuclein A53T mutated (A53T) (catalog # R1109) iPSC-derived dopaminergic neurons (dopaneurons) were thawed from liquid nitrogen. 400 000 viable (counted using a cell counter) dopaneurons […] were plated per well into 24 well plates on day 0 in complete maintenance medium (CMM).
A half-medium change was performed on the cells on Day 3 with CMM. On Day 5 cells were half-medium changed with complete brainphys medium. […] Cells were given half medium changes with or without compounds (depending on whether treatments with compound had started) every 2-3 days.

[2] = Mouse blood and prefrontal cortex microdialysis pharmacokinetics (Kpu,u); type: in vivo; conditions: single 10 mg/kg oral dose, at the 60-min time point
Procedure: Mouse Kpu,u estimates were calculated from blood and prefrontal cortex compound profiles following oral dosing of 10 or 30 mg/kg by gavage, with sequential blood sampling from the jugular vein and sequential brain interstitial fluid sampling via a microdialysis probe in the prefrontal cortex.

[3] = In-life whole blood compound levels in the A53T model; type: in vivo, mouse; conditions: for Blood exposure / Cmax: A53T model; for Blood exposure: 0.5-6 h sampling; for In-life whole blood compound level (Figure 4d): individual animals; for Cmax: mouse, whole blood, seven days before end of study
Procedure: In-life blood samples were taken at 0.5, 1, 2, 4, 6 h, timed relative to the first daily dose, from n = 3 animals per time point to give a composite profile from animals in each group. The in-life blood samples were collected from the saphenous vein (20 µL), transferred in an Eppendorf tube immediately and mixed with an equal volume (20 µL) of ice-cold Serine esterase inhibitor, trichlorfon (100 µM), the sample was frozen, stored at −80 °C and compound levels analyzed by LC-MS.

Trabid = Trabid (Homo sapiens, UniProt Q9UGI0); assay: DUB/cathepsin selectivity biochemical assay
Sequence of Trabid (Q9UGI0 whole entry, species assumed): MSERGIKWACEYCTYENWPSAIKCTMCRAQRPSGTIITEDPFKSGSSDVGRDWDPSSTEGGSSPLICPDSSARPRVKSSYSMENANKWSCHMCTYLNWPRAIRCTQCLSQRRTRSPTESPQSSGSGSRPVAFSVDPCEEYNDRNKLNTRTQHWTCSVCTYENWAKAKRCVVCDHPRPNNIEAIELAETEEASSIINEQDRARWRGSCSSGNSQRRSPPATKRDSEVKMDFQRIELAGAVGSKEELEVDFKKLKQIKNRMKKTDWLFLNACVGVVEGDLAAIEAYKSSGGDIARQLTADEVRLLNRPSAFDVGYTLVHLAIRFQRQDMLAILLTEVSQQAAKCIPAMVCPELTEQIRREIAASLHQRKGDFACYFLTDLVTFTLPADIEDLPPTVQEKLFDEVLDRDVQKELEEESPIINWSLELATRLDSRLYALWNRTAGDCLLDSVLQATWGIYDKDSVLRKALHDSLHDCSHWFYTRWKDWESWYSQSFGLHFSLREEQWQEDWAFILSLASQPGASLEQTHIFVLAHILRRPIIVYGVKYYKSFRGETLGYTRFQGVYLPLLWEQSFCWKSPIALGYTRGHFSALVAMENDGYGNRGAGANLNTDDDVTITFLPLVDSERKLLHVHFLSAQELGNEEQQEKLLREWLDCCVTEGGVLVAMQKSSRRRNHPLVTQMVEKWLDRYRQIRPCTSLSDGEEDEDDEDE

USP32 = USP32 (Homo sapiens, UniProt Q8NFA0); assay: DUB/cathepsin selectivity biochemical assay
Sequence of USP32 (Q8NFA0 whole entry, species assumed): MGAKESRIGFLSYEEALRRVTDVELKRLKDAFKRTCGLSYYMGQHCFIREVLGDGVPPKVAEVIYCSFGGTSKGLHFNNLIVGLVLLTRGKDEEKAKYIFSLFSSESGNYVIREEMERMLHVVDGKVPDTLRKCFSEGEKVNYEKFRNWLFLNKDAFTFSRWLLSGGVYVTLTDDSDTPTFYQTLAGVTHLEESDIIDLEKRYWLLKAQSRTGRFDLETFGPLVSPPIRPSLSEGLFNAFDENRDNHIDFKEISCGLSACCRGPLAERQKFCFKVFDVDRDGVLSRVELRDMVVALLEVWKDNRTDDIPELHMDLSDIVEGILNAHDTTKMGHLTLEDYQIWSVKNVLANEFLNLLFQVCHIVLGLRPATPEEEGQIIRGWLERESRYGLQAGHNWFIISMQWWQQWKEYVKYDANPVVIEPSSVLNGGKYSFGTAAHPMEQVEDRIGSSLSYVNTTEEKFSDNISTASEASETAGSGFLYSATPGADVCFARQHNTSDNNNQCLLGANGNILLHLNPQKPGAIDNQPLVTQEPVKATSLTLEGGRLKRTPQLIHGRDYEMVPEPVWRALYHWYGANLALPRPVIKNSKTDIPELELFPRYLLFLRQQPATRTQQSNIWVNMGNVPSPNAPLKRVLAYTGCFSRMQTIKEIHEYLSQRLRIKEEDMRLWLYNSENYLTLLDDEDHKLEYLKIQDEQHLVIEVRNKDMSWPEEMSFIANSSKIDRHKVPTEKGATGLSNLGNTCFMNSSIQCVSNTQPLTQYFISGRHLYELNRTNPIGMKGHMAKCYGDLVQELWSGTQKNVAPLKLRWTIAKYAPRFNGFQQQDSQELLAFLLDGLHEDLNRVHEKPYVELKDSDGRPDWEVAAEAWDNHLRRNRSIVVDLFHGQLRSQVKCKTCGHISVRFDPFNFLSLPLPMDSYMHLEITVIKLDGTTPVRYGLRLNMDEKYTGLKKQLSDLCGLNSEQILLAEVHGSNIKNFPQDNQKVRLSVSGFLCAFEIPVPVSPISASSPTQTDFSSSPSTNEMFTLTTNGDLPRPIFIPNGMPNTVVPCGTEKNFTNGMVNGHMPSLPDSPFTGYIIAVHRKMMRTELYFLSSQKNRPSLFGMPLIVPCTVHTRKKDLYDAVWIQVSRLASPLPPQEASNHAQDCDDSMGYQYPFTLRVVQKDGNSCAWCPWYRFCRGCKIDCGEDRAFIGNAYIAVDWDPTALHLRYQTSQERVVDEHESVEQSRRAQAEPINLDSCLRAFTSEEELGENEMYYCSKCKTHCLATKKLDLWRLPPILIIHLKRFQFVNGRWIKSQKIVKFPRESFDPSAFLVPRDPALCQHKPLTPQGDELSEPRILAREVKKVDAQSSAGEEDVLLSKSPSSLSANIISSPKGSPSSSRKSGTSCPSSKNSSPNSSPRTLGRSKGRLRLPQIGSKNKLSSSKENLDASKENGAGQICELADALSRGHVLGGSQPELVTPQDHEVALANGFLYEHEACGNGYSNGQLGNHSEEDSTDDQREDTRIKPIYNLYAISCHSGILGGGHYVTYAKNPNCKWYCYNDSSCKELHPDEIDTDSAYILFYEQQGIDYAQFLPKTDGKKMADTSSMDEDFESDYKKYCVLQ

In the case of `C[C@@H]1[C@H]2CCN(C(=O)c3ncc(-c4ccnc(C#N)c4)o3)[C@H]2CN1C#N` [MTX115325], the IC50 (UchL3) is reported as > 300 µM, the IC50 (USP34 CORE) is reported as > 300 µM and the IC50 (MINDY2) is reported as > 300 µM. The IC50 (VCPIP FL) was > 300 µM, the IC50 (USP19) was 278 µM and the IC50 (OTUB2) was > 300 µM. For the same molecule, the IC50 (USP36 CD) was 157 µM, the IC50 (USP28) was 106 µM and the Increase in mitophagy (SH-SY5Y mito-QC cells; 37 nM, 72 h, with 0.1 mM A/O as printed) was 22%. The “Maximum increase in mitophagy compared to baseline” value (SH-SY5Y mito-QC cells; 1 µM, 72 h, with 0.1 mM A/O as printed) was 54%, the “Mitophagy (mito-QC)” value (SH-SY5Y mito-QC cells; 72 h in combination with sub-maximal A/O) was “significantly potentiates mitophagy induction; also recorded: concentration-dependent increase in mitophagy” and the TOM20-ubiquitylation ([1]; A53T neurons, 7 days at 10 nM, 100 nM or 1 µM) was “caused the upregulation of TOM20-ubiquitylation”. The TOM20-ubiquitylation ([1]; A53T αSyn background, 24 h, 1 µM) was “increased TOM20-ubiquitylation”, the “Prefrontal cortex free CMax” value [2] was 528 nM and the Blood exposure ([3]; 15 mg/kg BID oral) was 13606 ng·h/mL. The “In-life whole blood compound level (Figure 4d)” value ([3]; 15mg/kg, 0 hours) was 0, the “In-life whole blood compound level (Figure 4d)” value ([3]; 15mg/kg, 0.5 hours) was 6664.93 and 11816.1 and the “In-life whole blood compound level (Figure 4d)” value ([3]; 15mg/kg, 1 hour) was 7008.88 and 8260.64. For the same molecule, the “In-life whole blood compound level (Figure 4d)” value ([3]; 15mg/kg, 2 hours) was 2278.7 and 2189.81, the “In-life whole blood compound level (Figure 4d)” value ([3]; 15mg/kg, 4 hours) was 404.48 and 419 and 425.15 and the “In-life whole blood compound level (Figure 4d)” value ([3]; 15mg/kg, 6 hours) was 92.39 and 277.42. The Blood exposure ([3]; 50 mg/kg BID oral) was 42959 ng·h/mL, the “In-life whole blood compound level (Figure 4d)” value ([3]; 50mg/kg, 0 hours) was 0 and the “In-life whole blood compound level (Figure 4d)” value ([3]; 50mg/kg, 0.5 hours) was 12073.7 and 13499.1 and 13769.4. The “In-life whole blood compound level (Figure 4d)” value ([3]; 50mg/kg, 1 hour) was 13326.8 and 14323.4 and 17878.5, the “In-life whole blood compound level (Figure 4d)” value ([3]; 50mg/kg, 2 hours) was 8220.29 and 5260.76 and the “In-life whole blood compound level (Figure 4d)” value ([3]; 50mg/kg, 4 hours) was 1244.02 and 1284.38. The “In-life whole blood compound level (Figure 4d)” value ([3]; 50mg/kg, 6 hours) was 402.46 and 633.68, the Cmax ([3]; 15 mg/kg BID oral) was 7550 ng/mL and the Cmax ([3]; 50 mg/kg BID oral) was 16400 ng/mL. For the same molecule, the IC50 (Trabid) was > 300 µM and the IC50 (USP32) was 120 µM.
